Several values for one entry are separate records, joined by “and”; a condition that tells them apart may be missing. Equal values may be shown once. One block for each molecule: values may come before it.
How the values were obtained:
Type in all cases: physicochemical
[1] = Photostability protocol: thin film irradiated with xenon arc lamp; settings: 1 hour xenon arc lamp; for Photostability: ratio of absorbance at λmax irradiated vs unirradiated, ^a = average of multiple measurements
Protocol: 1 mL of a 3% solution of the test compound (30 mg of test compound in 1 mL solvent) was prepared in a solvent mix made up of 50% EtOH and 25% capric/caprylic triglyceride and 25% C12-C15 alkyl benzoate. 50 μL of this solution (containing 1.5 mg of test compound) was added carefully to the centre of a glass microscope slide and the volatile components left to evaporate in the dark for at least 3 hours to give a liquid film. The prepared films were then exposed for 1 hour to an Eimac 150 W xenon arc lamp filtered through Pyrex (15 Amp supply current, samples 19 cm from the lamp) previously allowed to warm up for 15 minutes prior to sample exposure. The irradiation was performed in a fume cupboard where the air flow was sufficient to keep sample T<30° C. One hour's exposure represented a calculated radiation dose (using meter) of approximately 100 MED.
In order to calculate the photostability of the test compounds, the exposed slides were placed in a beaker and rinsed with 2×5 mL EtOH, 1×5 mL MeOH. The combined washings were then added to a 100 mL volumetric flask and made up to 100 mL total volume with methanol. The UV absorbance was then measured in a 10 mm cuvette. The percent stability is measured as the ratio of absorbance at λmax for the irradiated sample compared to the unirradiated sample.
The thin films are a good surrogate for testing the stability of a candidate in, for example, a sunscreen formulation as they use cosmetic emollients as solvent and are formed at cosmetically relevant concentrations.

[2] = % transmission spectrum of 0.1% solution (breakthrough, steepness); settings: for Steepness: distance in nm over which transmittance increases from 1 to 80%; for Breakthrough (1% T at 0.1%): value in nm where transmittance increases beyond 1%, 0.1% solution
Description: FIG. 2 is a is a graphical representation of the % transmission of compounds 142 and 143 measured in a 2 mm cuvette as 0.1% solutions in methanol (142 is the left most trace);
(§1) The synthesised benzoyl functionalised compounds and their spectroscopic properties can be seen in table 2 wherein; breakthrough denotes the value in nm where transmittance increases beyond 1%; steepness refers to the distance in nm over which transmittance increases from 1 to 80% (a higher value indicates a less steep transition from absorbing to transmitting and is generally unfavourable); and ^a denotes an average of multiple measurements. As a general comment, it can be noted that the benzoyl substituted compounds gave similar absorbance maxima to the corresponding trifluoroacetyl derivative.

[3] = UV absorbance spectrum in solution (λmax, λcrit, extinction coefficients); settings: for λcrit: critical wavelength; for E (1%, 1 cm): mass extinction coefficient; for ε: molar extinction coefficient, in M-1 cm-1 (unit assumed)
Description: as §1, with “FIG. 1 is a graphical representation of the absorbance of compounds 142 and 143 measured in a 10 mm cuvette as 0.001% solutions in methanol (142 is the uppermost trace at peak point of approximately 330 nm); The” for “The”

Compound: CN(/C=C(\C(=O)C(F)(F)F)c1ccccc1)c1ccccc1 [Compound 183]
Photostability (% remains) [1]: 90%
Photostability [1]: 90%
λmax [3]: 332 nm
λcrit [3]: 367 nm
E (1%, 1 cm) [3]: 759
ε [3]: 23153

Compound: O=C(/C(=C\N1CCCN(/C=C(\C(=O)C(F)(F)F)c2ccccc2)c2ccccc21)c1ccccc1)C(F)(F)F [Compound 224]
Photostability (% remains) [1]: 97%
λmax [3]: 323 nm
λcrit [3]: 366 nm
E (1%, 1 cm) [3]: 690
ε [3]: 37546

Compound: CCN(/C=C(/C(=O)C(F)(F)F)c1ccccc1)c1ccc(C(=O)OC)cc1 [Compound 239]
Steepness [2]: 28 nm
Breakthrough (1% T at 0.1%) [2]: 391 nm
λmax [3]: 348 nm
λcrit [3]: 375 nm
E (1%, 1 cm) [3]: 728
ε [3]: 25349

Compound: CC(C)(C)C(=O)/C(=C/N(c1ccccc1)c1ccccc1)c1ccccc1 [Compound 294]
Steepness [2]: 28 nm
Breakthrough (1% T at 0.1%) [2]: 383 nm
λmax [3]: 344 nm
λcrit [3]: 373 nm
E (1%, 1 cm) [3]: 492
ε [3]: 17462

Compound: CCN(/C=C(\C(=O)C(F)(F)C(F)(F)C(F)(F)F)c1ccccc1)c1ccccc1 [Compound 191]
Photostability (% remains) [1]: 95%
λmax [3]: 332 nm
λcrit [3]: 370 nm
E (1%, 1 cm) [3]: 452
ε [3]: 18948

Compound: CCOC(=O)/C(=C\N(C)C)c1ccccc1 [Compound 171]
Photostability (% remains) [1]: 18%
λmax [3]: 291 nm
E (1%, 1 cm) [3]: 1169
ε [3]: 22598

Compound: O=C(/C(=C\N1CCc2ccc(C(F)(F)F)cc21)c1ccccc1)C(F)(F)F [Compound 236]
Steepness [2]: 19 nm
Breakthrough (1% T at 0.1%) [2]: 409 nm
λmax [3]: 364 nm
λcrit [3]: 387 nm
E (1%, 1 cm) [3]: 815
ε [3]: 31379

The next lines start with the values.

Photostability [1]: 80%
Steepness [2]: 34 nm
Breakthrough (1% T at 0.1%) [2]: 418 nm
λmax [3]: 363 nm
λcrit [3]: 388 nm
E (1%, 1 cm) [3]: 989
ε [3]: 31758
Compound: CCOC(=O)C(=O)/C(=C\N1CCc2ccccc21)c1ccccc1 [Compound 231]

Steepness [2]: 46 nm
Breakthrough (1% T at 0.1%) [2]: 423 nm
λmax [3]: 370 nm
λcrit [3]: 389 nm
E (1%, 1 cm) [3]: 1205
ε [3]: 47867
Compound: COC(=O)c1ccc2c(c1)CCN2/C=C(/C(=O)c1cccc(C)c1)c1ccccc1 [Compound 286]

Steepness [2]: 34 nm
Breakthrough (1% T at 0.1%) [2]: 398 nm
λmax [3]: 355 nm
λcrit [3]: 381 nm
E (1%, 1 cm) [3]: 522
ε [3]: 27313
Compound: CCCCC(CC)COC(=O)c1ccc(N(/C=C(\C(=O)C(F)(F)F)c2ccccc2)c2ccccc2)cc1 (centres unmarked) [Compound 230]

Steepness [2]: 30 nm
Breakthrough (1% T at 0.1%) [2]: 423 nm
λmax [3]: 371 nm
λcrit [3]: 389 nm
E (1%, 1 cm) [3]: 1150
ε [3]: 45689
Compound: COC(=O)c1ccc2c(c1)CCN2/C=C(/C(=O)c1ccc(C)cc1)c1ccccc1 [Compound 284]

Photostability (% remains) [1]: 85%
λmax [3]: 347 nm
λcrit [3]: 374 nm
E (1%, 1 cm) [3]: 646
ε [3]: 30252
Compound: CCCCC(CC)COC(=O)c1ccc(N(/C=C(\C(=O)C(F)(F)F)c2ccccc2)CC)cc1 (centres unmarked) [Compound 227]

Steepness [2]: 20 nm
Breakthrough (1% T at 0.1%) [2]: 397 nm
λmax [3]: 359 nm
λcrit [3]: 378 nm
E (1%, 1 cm) [3]: 1169 and 1350
ε [3]: 60809 and 70222
Compound: CCCCCCC(=O)C1=CN(c2ccc(N3C=C(C(=O)CCCCCC)C(C)(C)CC3)cc2)CCC1(C)C [Compound 129, reference compound]

— patent US11512042B2, “Enamine compounds for absorbance of electromagnetic energy” (Commonwealth Scientific and Industrial Research Organisation, priority 2015, dated 2022)
